Results: patent publication US11583570B2, “Use of autoinducer-related pathway in inducing apoptosis and anti-infective therapy” (TSINGHUA UNIVERSITY, priority 2017, dated 2023)

Legend:
TNFR1 (1-293) mutant = molecular target: T1, TNFR1 (1-293) mutant (Homo sapiens, UniProt P19438); assay: Single molecule photo-bleaching step counting (MSFQ), TNFR1 in HELA cells; format: cell-based; settings: DD-deleted TNFR1-eGFP
T1 construct: human TNFR1 (1-293) mutant was amplified from human TNFR1 with specific primers and cloned into peGFP-N1 vector; expressed in transfected cells; host or cells: HeLa cells
T1 sequence (P19438 30-293): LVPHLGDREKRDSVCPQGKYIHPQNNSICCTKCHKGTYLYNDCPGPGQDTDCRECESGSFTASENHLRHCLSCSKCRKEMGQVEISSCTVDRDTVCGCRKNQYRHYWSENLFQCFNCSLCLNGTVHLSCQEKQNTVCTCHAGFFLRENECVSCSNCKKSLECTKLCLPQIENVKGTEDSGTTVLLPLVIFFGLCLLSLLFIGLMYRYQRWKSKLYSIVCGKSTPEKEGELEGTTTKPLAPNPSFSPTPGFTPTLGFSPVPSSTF
From the text: Then the cells were stimulated with HSLs, TNF α, or left untreated, and washed twice with PBS and fixed with 4% paraformaldehyde before imaging. GFP was excited at 488 nm with a laser power of 5 mW measured after the laser passing through the objective. […] The EM gain of the EMCCD camera was set at 300. Movies of 400 frames were acquired for each sample at a full-frame rate of 10 Hz. For imaging analysis, the background fluorescence was firstly subtracted from the movie acquired from the fixed cells using the rolling ball method in Image J software, and regions of interest on movies were selected manually according to the outline of cells. To analyze the bleaching steps, the fluorescence time courses of each fluorescent spots were first constructed by Image J plugin and bleaching steps were then counted manually.

reticuloma A20 = assay: Annexin V/PI apoptosis detection, A20; format: cell-based
Procedure: (§1) Cell apoptosis was detected with Annexin V/PI apoptosis detection Kit. Briefly, cells were stimulated with HSLs or left untreated. 6 hrs later, cells were collected and stained with Annexin VFITC and PI for 15 min at RT, then the apoptotic effect was measured by flow cytometry. OT-I or OT-II splenocytes were pulsed with specific peptides or PMA and ionomycin mixture with or without HSLs or TNF α plus cycloheximide. 24 hrs later, cells and supernatants were collected separately. For OT-I activation, cells were stained with CD69 and CD8. For OT-II activation, cells were stained with CD69 and CD4. Cell activation was measured by flow cytometry. All supernatants were detected for IL-2 secretion by ELISA.

Iκbα = Iκbα degradation in non-apoptotic Jurkat cells; format: cell-based
monocytic RAW264.7 = assay: Annexin V/PI apoptosis detection, RAW264.7; format: cell-based
Procedure: as §1

[1] = tested on: thioglycolate-induced macrophages; assay: Annexin V/PI apoptosis detection, macrophages; format: cell-based
Procedure: as §1

T cell = assay: Annexin V/PI apoptosis detection, T cells; format: cell-based; settings: 10 and 20 μM
Procedure: as §1

Lipid binding assay = format: physicochemical; settings: DOPC, DPPC, PE, cholesterol, sphingomyelin individually or in combination
Procedure: 1 mg/ml of each lipid species in chloroform was coated on round glass slides by evaporation.
Then the glass slices were incubated with 100 μM 3OC12 HSL in DMSO in PBS at 37° C. After the incubation, the glass slices were washed slightly with PBS for 4-5 times and lipids were dissolved with DMSO. The amount of 3OC12 HSL in each sample was measured by QS bioassay as described above.

[2] = tested on: transformed DC line DC2.4; assay: Annexin V/PI apoptosis detection, DC2.4; format: cell-based
Procedure: as §1

RAW264.7 cells = assay: Phagocytosis assay; format: cell-based
Procedure: For Phagocytic assay, polystyrene beads were coated with BSA plus mouse anti-BSA Ab via commercial methods. Before experiment, RAW264.7 cells were cultured on clean glass slices in 24-hole plate with Opti-MEM. Cells were co-cultured with coated beads, centrifuged at 900 g, 4° C. for 5 min and cultured at 37° C. for 45 min. Then cells were fixed with 4% paraformaldehyde and stained with 488 nm anti-mouse fluorescent Ab for immunofluorescent imaging. For analysis, total number of beads on each cell was calculated under bright field, the number of beads which were not engulfed were calculated under fluorescent lighting.

caspases 8 and 3 = assay: Caspase 8 and 3 cleavage in human cells (Western blot); format: cell-based; settings: human (FIGS. 3a and b)
[3] = Atomic force microscopy of reconstituted lipid domains; format: physicochemical
Procedure: […] The dried lipid film was resuspended with 4 mM HEPES buffer (with 150 mM NaCl) to produce SUV. Vesicle solution (100 μl) was added to freshly cleaved mica clamped in a fluid cell on the AFM heater head. After incubation at 55° C. for 30 min and then kept at RT for another 30 min, the bilayers were rinsed extensively with HEPES buffer to remove excess vesicles.
AFM images were obtained at RT on a NanoScope V Multimode Scanning Probe Microscope (Digital Instrument, Veeco, Santa Barbara, Calif., USA) in the tapping mode using V shape Si3N4 tips (model DNL-10) with spring constants of ˜0.35 N/m and resonance frequencies between 8 and 10 kHz in aqueous solutions. All experiments were conducted in Hepes buffer using a commercially available fluid cell, sealed by an O-ring. A J scanner (125 μm×125 μm) was used with a scan rate between 0.8 and 2 Hz per line.

CCCCCCCCCC(=O)CC(=O)N[C@H]1CCOC1=O [3OC12 HSL, N-(3-oxo-dodecanoyl) homoserine lactone]
three step bleaching frequency (TNFR1 (1-293) mutant; untreated 7.1): 17.0+/−1.3%
one step bleaching frequency (TNFR1 (1-293) mutant; untreated 60.0): 47.1%
sensitivity to 3OC12 HSL (reticuloma A20): sensitive
Iκbα degradation (Iκbα): degraded
sensitivity to 3OC12 HSL (monocytic RAW264.7): sensitive
sensitivity to 3OC12 HSL [1]: relatively resistant
T cell death (T cell): significant T cell death
retention by coated lipid components (Lipid binding assay): only lipid components containing cholesterol, sphingomyelin and DOPC were able to efficiently retain
sensitivity to 3OC12 HSL [2]: sensitive
attachment of beads to cells (RAW264.7 cells): not affected
phagocytosis of antibody-coated latex beads (RAW264.7 cells; without 3OC12 HSL 4.6): 2.6+/−0.2%
caspase 8 and 3 cleavage (caspases 8 and 3): cleaved in a dose and time-dependent manner
appearance of ordered lipid domains ([3]; domains with cholesterol and sphingolipids): clear dissolution of the elevated plains
appearance of smaller domains unrelated to lipid rafts ([3]; mixture of DOPC and DPPG): minimally affected
